{"source": "ChEMBL document CHEMBL1145404", "about": "“o-Naphthalenedicarboxaldehyde derivative of 7'-aminonaltrindole as a selective delta-opioid receptor affinity label” (J Med Chem, 2007)", "key": {"[1]": {"target": "Delta-type opioid receptor (Homo sapiens, UniProt P41143)", "sequence (P41143 whole entry)": "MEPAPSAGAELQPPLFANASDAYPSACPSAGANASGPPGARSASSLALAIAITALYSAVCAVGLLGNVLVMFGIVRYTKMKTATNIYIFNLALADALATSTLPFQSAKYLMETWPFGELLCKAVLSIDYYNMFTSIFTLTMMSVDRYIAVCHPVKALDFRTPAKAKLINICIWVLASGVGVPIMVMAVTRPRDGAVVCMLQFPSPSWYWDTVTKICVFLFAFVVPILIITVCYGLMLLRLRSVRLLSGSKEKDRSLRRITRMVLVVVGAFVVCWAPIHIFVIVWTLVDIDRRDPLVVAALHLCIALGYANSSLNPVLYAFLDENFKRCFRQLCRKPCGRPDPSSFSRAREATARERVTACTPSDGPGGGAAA", "assay": "Displacement of [3H]diprenorphine from delta opioid receptor expressed in human HEK293 cells", "type": "cell-based"}, "[2]": {"target": "Kappa-type opioid receptor (Homo sapiens, UniProt P41145)", "sequence (P41145 whole entry)": "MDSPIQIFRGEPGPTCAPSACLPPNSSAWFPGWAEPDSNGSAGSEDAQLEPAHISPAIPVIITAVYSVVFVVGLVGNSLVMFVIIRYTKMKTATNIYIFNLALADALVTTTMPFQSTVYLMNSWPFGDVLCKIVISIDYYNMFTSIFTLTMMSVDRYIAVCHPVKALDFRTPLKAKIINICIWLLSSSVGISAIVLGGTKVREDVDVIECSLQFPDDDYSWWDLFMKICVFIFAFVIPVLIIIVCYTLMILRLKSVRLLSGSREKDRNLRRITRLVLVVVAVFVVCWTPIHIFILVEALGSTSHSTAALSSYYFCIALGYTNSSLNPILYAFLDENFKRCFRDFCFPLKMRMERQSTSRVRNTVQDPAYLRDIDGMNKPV", "assay": "Displacement of [3H]diprenorphine from kappa opioid receptor expressed in human HEK293 cells", "type": "cell-based"}, "[3]": {"target": "Opioid receptors; mu & delta (Homo sapiens) (UniProt P41143+P35372)", "sequence (P35372 whole entry, looked up)": "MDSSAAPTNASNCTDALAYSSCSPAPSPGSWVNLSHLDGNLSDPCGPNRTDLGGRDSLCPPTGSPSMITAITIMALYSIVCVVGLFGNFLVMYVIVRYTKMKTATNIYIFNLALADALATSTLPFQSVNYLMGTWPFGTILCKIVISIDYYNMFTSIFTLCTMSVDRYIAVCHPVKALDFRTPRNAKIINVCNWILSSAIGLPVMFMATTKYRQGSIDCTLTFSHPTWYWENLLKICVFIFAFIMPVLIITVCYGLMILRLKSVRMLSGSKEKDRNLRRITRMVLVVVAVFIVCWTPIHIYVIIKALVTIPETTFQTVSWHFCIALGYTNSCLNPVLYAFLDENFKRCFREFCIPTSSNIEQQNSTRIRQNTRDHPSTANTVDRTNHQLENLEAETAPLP", "sequence (P41143 whole entry, looked up)": "as the sequence (P41143 whole entry) above", "assay": "Selectivity for human delta opioid receptor to human mu opioid receptor", "type": "protein assay"}, "[4]": {"target": "Delta-type opioid receptor (Mus musculus, UniProt P32300)", "sequence (P32300 whole entry)": "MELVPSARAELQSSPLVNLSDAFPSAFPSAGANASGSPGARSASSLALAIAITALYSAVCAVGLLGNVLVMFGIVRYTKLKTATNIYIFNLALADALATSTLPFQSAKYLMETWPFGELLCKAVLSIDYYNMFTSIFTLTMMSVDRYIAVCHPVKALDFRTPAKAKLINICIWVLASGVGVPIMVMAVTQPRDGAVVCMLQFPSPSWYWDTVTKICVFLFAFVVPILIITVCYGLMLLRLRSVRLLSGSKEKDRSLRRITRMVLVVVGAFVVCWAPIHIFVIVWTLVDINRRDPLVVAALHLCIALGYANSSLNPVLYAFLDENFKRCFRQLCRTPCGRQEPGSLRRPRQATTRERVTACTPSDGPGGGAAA", "assay": "Agonist activity at delta opioid receptor in mouse vas deferens", "type": "functional, tissue-based"}, "Mu-type opioid receptor [5]": {"target": "Mu-type opioid receptor (Homo sapiens, UniProt P35372)", "sequence (P35372 whole entry)": "as the sequence (P35372 whole entry, looked up) above", "assay": "Displacement of [3H]diprenorphine from mu opioid receptor expressed in human HEK293 cells", "type": "cell-based"}, "[6]": {"target": "Opioid receptors; delta & kappa (Homo sapiens) (UniProt P41145+P41143)", "sequence (P41143 whole entry, looked up)": "as the sequence (P41143 whole entry) above", "sequence (P41145 whole entry, looked up)": "as the sequence (P41145 whole entry) above", "assay": "Selectivity for human delta opioid receptor to human kappa opioid receptor", "type": "protein assay"}, "Mu-type opioid receptor [7]": {"target": "Mu-type opioid receptor (Cavia porcellus, UniProt P97266)", "sequence (P97266 whole entry)": "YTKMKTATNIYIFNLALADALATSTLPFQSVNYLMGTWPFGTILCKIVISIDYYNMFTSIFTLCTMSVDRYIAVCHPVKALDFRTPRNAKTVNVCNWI", "assay": "Agonist activity at mu opioid receptor in guinea pig ileum longitudinal muscle", "type": "functional, tissue-based"}}, "data": [{"compound": "O=Cc1cc2ccc(C(=O)Nc3cccc4c5c([nH]c34)[C@@H]3Oc4c(O)ccc6c4[C@@]34CCN(CC3CC3)[C@H](C6)[C@]4(O)C5)cc2cc1C=O", "values": [{"measurement": "Ki", "setting": "[1]", "value": 2.25, "unit": "nM"}, {"measurement": "Ki", "setting": "[2]", "value": 153, "unit": "nM"}, {"measurement": "Ratio Ki", "setting": "[3]", "value": 64}, {"measurement": "IC50", "setting": "[4]", "value": 0.46, "unit": "nM"}, {"measurement": "Ki", "setting": "Mu-type opioid receptor [5]", "value": 144, "unit": "nM"}, {"measurement": "Ratio Ki", "setting": "[6]", "value": 68}, {"measurement": "IC50", "setting": "Mu-type opioid receptor [7]", "value": 19.5, "unit": "nM"}]}]}
